The source of these data is patent US7388006B2, “Non-steroidal progesting” (Bayer Schering Pharma AG, priority 2002, dated 2008).

The subject of one assay is rat mammary epithelium. Briefly: Bioassay on proliferating/differentiating effects in the rat mammary epithelium (whole mount staining, terminal and alveolar endbuds). In kind it is in vivo. From the text: The object of this test is to evaluate the effect of progestins on the development of the mammary gland, in particular on the formation of terminal end-buds in the mammary gland in estrogen primed rats. Progestins together with other hormones (prolactin, estrogens, glucocorticoids, growth hormones etc.) induce proliferation and differentiation of the mammary glandular epithelium. In particular, they are involved in the morphogenesis of alveolar and terminal end buds, the sites of milk protein production and secretion into the ductal lumen.
In order to determine the effects of test progestins according to the present invention, in particular compound ((+)-1), in mammary gland differentiation and proliferation, premature female rats (Wistar Han, SPF) are ovariectomized at the age of 21 days, 4 to 6 days before treatment start. The animals are treated for 6 days with standard estrogen (estrone (E1), 70 μg/kg) and the test progestin ((+)-1) (application volume: 0.1 ml/50 g body weight; vehicle: benzylbenzoate/castor oil (1+4 v/v); subcutaneous). Control groups are e.g.: vehicle, estrone without progestin, estradiol together with a known progestin, e.g. R5020 (promegestone). After the 6-day treatment the animals are killed with carbon dioxide.
For the whole mount staining, animals are shaved in the left abdominal inguinal mammary region, which is cut from the body together with the skin. For the histological/immunohistochemical analyses the right abdominal inguinal mammary gland is cut from the body together with the connective-tissue adhered thereto and fixed in 3.7% formalin in PBS (phosphate buffer saline; without Ca^2+/Mg^2+).
The preparations are fixed over night in alcohol-formalin according to the method of Tellyesniczky (see below). Then the mammary gland tissue and subcutis adhered thereto are stripped from the cutis and the preparations are again fixed over night. The further steps are as follows: ethanol 70%: 1.5 hours; acetone: 3×1.5 hours; acetone: over night; isopropanol: 1.5 hours; ethanol 96%: 2 hours; hematoxylin-iron: 3 hours; VE water: first rinse the preparations and then 2×0.5 hours; ethanol 70%: over night; ethanol 80%: 1.5 hours; ethanol 96%: 1.5 hours; isopropanol: 1.5 hours. The preparations are then moved to petri dishes and left in toluene for approximately 1 hour, i.e. until they have stopped to swim up. Then the preparations are treated with cedarwood oil (Merck, no. 1.06965). The incubation times above are minimum times and can be extended. In particular, incubation in ethanol 70% after fixation can be extended to at least 2.5 weeks.
Preparation of the solutions necessary for the whole mount staining: • a) Alcohol-formalin according to Tellyesniczky: formaldehyde 37%: 81.8 ml, ethanol 70%: 1636 ml, glacial acetic acid (to be added shortly before use): 81.8 ml (total: 1800 ml). • b) Hematoxylin mother solution: Hematoxylin (Merck, no. 1.15938): 10 g, ethanol 96%: 100 ml. The solution must stand for 48 hours at 37° C. before use. […]
By means of a 40-fold magnification, the terminal end buds near the nipple in direction of the tail are counted. […] For well-differentiated preparations this area may be reduced, with at least 250 buds to be counted. After counting, the number of end buds per 1 mm^2 is calculated.
The number of terminal and alveolar endbuds is counted per mm^2 +/− standard deviation (SD). […]

Another assay concerns the target T1, androgen receptor (AR) (Homo sapiens, UniProt P10275).
T1 sequence (P10275 1-920): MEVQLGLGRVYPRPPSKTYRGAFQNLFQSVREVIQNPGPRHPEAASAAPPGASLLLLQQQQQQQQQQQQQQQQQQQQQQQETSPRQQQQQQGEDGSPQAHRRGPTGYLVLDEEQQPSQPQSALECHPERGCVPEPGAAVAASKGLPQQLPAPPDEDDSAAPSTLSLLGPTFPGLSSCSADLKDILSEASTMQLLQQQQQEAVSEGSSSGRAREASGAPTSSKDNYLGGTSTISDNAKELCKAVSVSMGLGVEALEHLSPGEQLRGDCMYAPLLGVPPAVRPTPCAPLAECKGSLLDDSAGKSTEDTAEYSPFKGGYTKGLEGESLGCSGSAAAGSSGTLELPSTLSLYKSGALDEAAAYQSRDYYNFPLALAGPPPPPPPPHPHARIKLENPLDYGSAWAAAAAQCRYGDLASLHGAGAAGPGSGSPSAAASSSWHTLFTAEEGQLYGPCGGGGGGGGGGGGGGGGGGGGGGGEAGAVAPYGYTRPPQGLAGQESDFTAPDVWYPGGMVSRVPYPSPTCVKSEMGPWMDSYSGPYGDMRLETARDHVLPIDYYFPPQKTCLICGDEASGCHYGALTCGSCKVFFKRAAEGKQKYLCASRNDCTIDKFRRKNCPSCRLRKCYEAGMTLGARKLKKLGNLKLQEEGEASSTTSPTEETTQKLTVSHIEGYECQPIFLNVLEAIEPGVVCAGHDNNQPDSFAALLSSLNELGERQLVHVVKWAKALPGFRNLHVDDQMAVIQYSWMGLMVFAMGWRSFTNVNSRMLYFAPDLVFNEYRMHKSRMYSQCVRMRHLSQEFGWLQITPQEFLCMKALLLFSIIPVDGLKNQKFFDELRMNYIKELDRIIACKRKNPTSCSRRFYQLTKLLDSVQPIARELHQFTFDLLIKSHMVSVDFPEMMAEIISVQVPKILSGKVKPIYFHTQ
Briefly: Binding affinity for the androgen receptor.

With `O=C1OCc2cc(NC(=O)C(O)(CC3(c4cc(C(F)(F)F)ccc4F)CC3)C(F)(F)F)ccc21` (single isomer, unassigned; (+)) [((+)-1), (+)-5-{2-hydroxy-3-[1-(2-fluoro-5-trifluoromethylphenyl)-cyclopropyl]-2-trifluoromethyl-propionylamino}-phthalide], in the assay on rat mammary epithelium (FIG. 3), the “Threshold value for the induction of terminal and alveolar endbuds” value was 100 µg/kg/day. Moreover, the “Terminal and alveolar end bud formation, result in words” value in the assay on rat mammary epithelium (at doses where pregnancy is fully maintained) is “no effects on terminal and alveolar end bud formation can be observed”. Also, in the assay with rat mammary epithelium (induction of terminal and alveolar endbuds), the “Mammary gland, whole mount staining (rat) [threshold value]” value was determined as 0.1 mg/kg/day. For the same compound, the “Mammary gland, whole mount staining, factor compared to R5020” value in the assay on rat mammary epithelium (median of three tests) is listed as “ca. 1”. In the assay with rat mammary epithelium (pregnancy maintenance versus mammary gland), the “Dissociation in favor of uterotropic activity (uterus versus mammary gland)” value is on record as “at least six fold”. The “Binding affinity for the androgen receptor (AR)” value at androgen receptor (AR) was “moderate binding affinity”.
